In patent US9006250B2, “4-amino-6-(heterocyclic)picolinates and 6-amino-2-(heterocyclic)pyrimidine-4-carboxylates and their use as herbicides” (Dow AgroSciences, LLC, priority 2013, dated 2015):

Test system: ABUTH: velvetleaf (Abutilon theophrasti)
Assay: Post-Emergent Test II herbicidal activity
Type: in vivo
Conditions: post-emergence, 336 h, 35 g ai/ha, 14 days, read-out: Visual Growth Reduction (%) 14 Days After Application ABUTH
Protocol: (§1) Post-Emergent Test II: Seeds or nutlets of the desired test plant species were planted in Sun Gro Metro-Mix® 360 planting mixture, which typically has a pH of 6.0 to 6.8 and an organic matter content of about 30 percent, in plastic pots with a surface area of 64 square centimeters. When required to ensure good germination and healthy plants, a fungicide treatment and/or other chemical or physical treatment was applied. The plants were grown for 7-21 d in a greenhouse with an approximate 15 h photoperiod which was maintained at about 23-29° C. during the day and 22-28° C. during the night. Nutrients and water were added on a regular basis and supplemental lighting was provided with overhead metal halide 1000-Watt lamps as necessary. The plants were employed for testing when they reached the first or second true leaf stage.
(§2) A weighed amount, determined by the highest rate to be tested, of each test compound was placed in a 25 mL glass vial and was dissolved in 4 mL of a 97:3 v/v mixture of acetone and DMSO to obtain concentrated stock solutions. […] The concentrated stock solutions obtained were diluted with 20 mL of an aqueous mixture containing acetone, water, isopropyl alcohol, DMSO, Atplus 411F crop oil concentrate, and Triton® X-155 surfactant in a 48.5:39:10:1.5:1.0:0.02 v/v ratio to obtain spray solutions containing the highest application rates. Additional application rates were obtained by serial dilution of 12 mL of the high rate solution into a solution containing 2 mL of 97:3 v/v mixture of acetone and DMSO and 10 mL of an aqueous mixture containing acetone, water, isopropyl alcohol, DMSO, Atplus 411F crop oil concentrate, and Triton X®-155 surfactant in a 48.5:39:10:1.5:1.0:0.02 v/v ratio to obtain ½×, ¼×, ⅛× and 1/16× rates of the high rate. Compound requirements are based upon a 12 mL application volume at a rate of 187 liters per hectare (L/ha). Formulated compounds were applied to the plant material with an overhead Mandel track sprayer equipped with 8002E nozzles calibrated to deliver 187 L/ha over an application area of 0.503 square meters at a spray height of 18 inches […] above the average plant canopy height. Control plants were sprayed in the same manner with the solvent blank.
(§3) The treated plants and control plants were placed in a greenhouse as described above and watered by subirrigation to prevent wash-off of the test compounds. After 14 d, the condition of the test plants as compared with that of the untreated plants was determined visually and scored on a scale of 0 to 100 percent where 0 corresponds to no injury and 100 corresponds to complete kill.

Structure (SMILES)	pest or weed control at 35 g/ha [%]
COC(=O)c1nc(-c2ccc3nsnc3c2F)cc(N)c1Cl [Compound 14]	0 to 29

Same assay, conditions: post-emergence, 336 h, 70 g ai/ha, 14 days, read-out: Visual Growth Reduction (%) 14 Days After Application ABUTH

Structure (SMILES)	pest or weed control at 70 g/ha [%]
COC(=O)c1nc(-c2ccc3nsnc3c2F)cc(N)c1Cl [Compound 14]	0 to 29

Same assay, conditions: post-emergence, 336 h, 140 g ai/ha, 14 days, read-out: Visual Growth Reduction (%) 14 Days After Application ABUTH

Structure (SMILES)	pest or weed control at 140 g/ha [%]
COC(=O)c1nc(-c2ccc3nsnc3c2F)cc(N)c1Cl [Compound 14]	0 to 29

Test system: AMARE: redroot pigweed (Amaranthus retroflexus)
Assay: Post-Emergent Test II herbicidal activity
Type: in vivo
Conditions: post-emergence, 336 h, 35 g ai/ha, 14 days, read-out: Visual Growth Reduction (%) 14 Days After Application AMARE
Protocol: as §1, §2, §3

Structure (SMILES)	pest or weed control at 35 g/ha [%]
COC(=O)c1nc(-c2ccc3nsnc3c2F)cc(N)c1Cl [Compound 14]	30 to 44

Same assay, conditions: post-emergence, 336 h, 70 g ai/ha, 14 days, read-out: Visual Growth Reduction (%) 14 Days After Application AMARE

Structure (SMILES)	pest or weed control at 70 g/ha [%]
COC(=O)c1nc(-c2ccc3nsnc3c2F)cc(N)c1Cl [Compound 14]	30 to 44

Same assay, conditions: post-emergence, 336 h, 140 g ai/ha, 14 days, read-out: Visual Growth Reduction (%) 14 Days After Application AMARE

Structure (SMILES)	pest or weed control at 140 g/ha [%]
COC(=O)c1nc(-c2ccc3nsnc3c2F)cc(N)c1Cl [Compound 14]	45 to 59

Test system: BRSNN: oilseed rape, canola (Brassica napus)
Assay: Post-Emergent Test II herbicidal activity
Type: in vivo
Conditions: post-emergence, 336 h, 35 g ai/ha, 14 days, read-out: Visual Growth Reduction (%) 14 Days After Application BRSNN
Protocol: as §1, §2, §3

Structure (SMILES)	pest or weed control at 35 g/ha [%]
COC(=O)c1nc(-c2ccc3nsnc3c2F)cc(N)c1Cl [Compound 14]	0 to 29

Same assay, conditions: post-emergence, 336 h, 70 g ai/ha, 14 days, read-out: Visual Growth Reduction (%) 14 Days After Application BRSNN

Structure (SMILES)	pest or weed control at 70 g/ha [%]
COC(=O)c1nc(-c2ccc3nsnc3c2F)cc(N)c1Cl [Compound 14]	0 to 29

Same assay, conditions: post-emergence, 336 h, 140 g ai/ha, 14 days, read-out: Visual Growth Reduction (%) 14 Days After Application BRSNN

Structure (SMILES)	pest or weed control at 140 g/ha [%]
COC(=O)c1nc(-c2ccc3nsnc3c2F)cc(N)c1Cl [Compound 14]	0 to 29

Test system: CHEAL: lambsquarters (Chenopodium album)
Assay: Post-Emergent Test II herbicidal activity
Type: in vivo
Conditions: post-emergence, 336 h, 35 g ai/ha, 14 days, read-out: Visual Growth Reduction (%) 14 Days After Application CHEAL
Protocol: as §1, §2, §3

Structure (SMILES)	pest or weed control at 35 g/ha [%]
COC(=O)c1nc(-c2ccc3nsnc3c2F)cc(N)c1Cl [Compound 14]	45 to 59

Same assay, conditions: post-emergence, 336 h, 70 g ai/ha, 14 days, read-out: Visual Growth Reduction (%) 14 Days After Application CHEAL

Structure (SMILES)	pest or weed control at 70 g/ha [%]
COC(=O)c1nc(-c2ccc3nsnc3c2F)cc(N)c1Cl [Compound 14]	60 to 74

Same assay, conditions: post-emergence, 336 h, 140 g ai/ha, 14 days, read-out: Visual Growth Reduction (%) 14 Days After Application CHEAL

Structure (SMILES)	pest or weed control at 140 g/ha [%]
COC(=O)c1nc(-c2ccc3nsnc3c2F)cc(N)c1Cl [Compound 14]	75 to 84

Test system: CYPES: yellow nutsedge (Cyperus esculentus)
Assay: Post-Emergent Test II herbicidal activity
Type: in vivo
Conditions: post-emergence, 336 h, 35 g ai/ha, 14 days, read-out: Visual Growth Reduction (%) 14 Days After Application CYPES
Protocol: as §1, §2, §3

Structure (SMILES)	pest or weed control at 35 g/ha [%]
COC(=O)c1nc(-c2ccc3nsnc3c2F)cc(N)c1Cl [Compound 14]	0 to 29

Same assay, conditions: post-emergence, 336 h, 70 g ai/ha, 14 days, read-out: Visual Growth Reduction (%) 14 Days After Application CYPES

Structure (SMILES)	pest or weed control at 70 g/ha [%]
COC(=O)c1nc(-c2ccc3nsnc3c2F)cc(N)c1Cl [Compound 14]	0 to 29

Same assay, conditions: post-emergence, 336 h, 140 g ai/ha, 14 days, read-out: Visual Growth Reduction (%) 14 Days After Application CYPES

Structure (SMILES)	pest or weed control at 140 g/ha [%]
COC(=O)c1nc(-c2ccc3nsnc3c2F)cc(N)c1Cl [Compound 14]	0 to 29

Test system: ECHCG: barnyardgrass (Echinochloa crus-galli)
Assay: Post-Emergent Test II herbicidal activity
Type: in vivo
Conditions: post-emergence, 336 h, 35 g ai/ha, 14 days, read-out: Visual Growth Reduction (%) 14 Days After Application ECHCG
Protocol: as §1, §2, §3

Structure (SMILES)	pest or weed control at 35 g/ha [%]
COC(=O)c1nc(-c2ccc3nsnc3c2F)cc(N)c1Cl [Compound 14]	0 to 29

Same assay, conditions: post-emergence, 336 h, 70 g ai/ha, 14 days, read-out: Visual Growth Reduction (%) 14 Days After Application ECHCG

Structure (SMILES)	pest or weed control at 70 g/ha [%]
COC(=O)c1nc(-c2ccc3nsnc3c2F)cc(N)c1Cl [Compound 14]	0 to 29

Same assay, conditions: post-emergence, 336 h, 140 g ai/ha, 14 days, read-out: Visual Growth Reduction (%) 14 Days After Application ECHCG

Structure (SMILES)	pest or weed control at 140 g/ha [%]
COC(=O)c1nc(-c2ccc3nsnc3c2F)cc(N)c1Cl [Compound 14]	0 to 29
